# Measurements reported in patent US8212036B2, “Maleate salts of 6-(5-chloro-2-pyridyl)-5-[(4-methyl-1-piperazinyl)carbonyloxy]-7-oxo-6,7-dihydro-5H-pyrrolo[3,4-b]pyrazine” (Sunovion Pharmaceuticals Inc., priority 2007, dated 2012).
# Assays:
# Assay type in all cases: physicochemical
# [1] = Aqueous solubility (24 hour equilibrated suspension in water, HPLC); settings: for pH measured at saturation: saturated suspension in water
# Description: The aliquot was diluted and analyzed by HPLC (Waters). The data was compared to a standard curve generated from a set of solutions of known concentrations. The standard curve and the samples were analyzed using a HPLC using the following conditions: […]
# [2] = Tablet dissolution over time at various pH; settings: for Dependence of dissolution on pH: oral dosage form, media pH 1 to 6.8 and deionized water
# Description: Dissolution over time of eszopiclone free base at various pHs (FIG. 1) was compared to that of eszopiclone maleate salt (FIG. 2) in dissolution media at various pH values using Hanson Research SR8-Plus Dissolution Apparatus and C-Technologies Fiber Optic UV Probes at 305 nm (excipients subtracted at 410 nm). The dissolution media used were (a) pH 1 (0.1N HCl) 50 ml of conc HCl mixed in 6 L of water; (b) pH 4.5 acetate buffer (20 mM) 5.88 g of sodium acetate trihydrate dissolved in 6 L of water, pH adjusted to 4.5 with acetic acid; (c) pH 5.5 phosphate buffer (20 mM) 16.3 g of potassium dihydrogen phosphate in 6 L of water. pH adjusted to 5.5 with NaOH; (d) pH 6.8 phosphate buffer (20 mM) 16.3 g of potassium dihydrogen phosphate in 6 L of water. pH adjusted 6.8 with NaOH. A standard dissolution protocol was used. The standard solution (0.006 mg/mL of eszopiclone free base) was prepared by weighing a known amount (˜20 mg) of the free base into a 100 mL volumetric flask. 10 mL of acetonitrile was added into the flask and sonicated until the solids dissolved completely. The solution was cooled to room temperature and made up to the 100 mL mark using media and mixed well. Dilute 3 mL to 100 mL using media. The tables were prepared by transferring 500 mL dissolution media into the 6 vessels. Blank readings were taken for all the probes using media. Standards were read for individual vessels. Probes were washed with media and then inserted back into each vessel. One tablet was transferred into each vessel. The dissolution program was started immediately and readings were taken at 305 nm for 60 min (every 1 min for 20 min and then every 10 min).
# FIG. 1 depicts dissolution profiles of the eszopiclone free base at pH 1 (0.1N HCl), pH 4.5 in buffer, pH 5.5 in buffer, pH 6.8 in buffer and in deionized water. […] FIG. 2 depicts dissolution profiles of the eszopiclone maleate salt at pH 1 (0.1N HCl), pH 4.5 in buffer, pH 5.5 in buffer, pH 6.8 in buffer and in deionized water. It can be seen that the dissolution is greater than 50% within five minutes and greater than 80% at one hour at all pH.
# [3] = Intrinsic dissolution, USP 28 method <1087>; settings: isotonic 50 mM acetate (pH 4.5) buffer at 37° C., 50 rpm
# Description: The intrinsic dissolution (Table 3) was determined using USP 28 method <1087> (United States Pharmacopeia, The National Formulary, USP 28, 28th edition, Rockville, […]., 2005). Preparation of each test sample was performed as per USP 28 method <1087> by weighing and transferring the material to the die cavity and compressing for 1 minute at the minimum compression pressure necessary to form a nondisintegrating compacted pellet. The dissolution media used was isotonic 50 mM acetate buffer (pH 4.5) at 37° C. and speed was set at 50 rpm. Each run was halted at 5 min, irrespective of the percent dissolved. Each salt was run in duplicate.
# [4] = all pH (pH 1, 4.5, 5.5, 6.8, deionized water)
Compound,pH measured at saturation [1],"solubility thermodynamic at 24 h ([1]; water, 24 hour at ambient) [µg/mL]","Dissolution at one hour [2, 4]","Dissolution within five minutes [2, 4]",Dependence of dissolution on pH [2],Intrinsic dissolution Average [3] [mgA/cm^2/min],Intrinsic dissolution Run 1 [3] [mgA/cm^2/min],Intrinsic dissolution Run 2 [3] [mgA/cm^2/min],"Solubility ([1]; water, 24 hour at ambient)",Part of tablet dissolved at one hour ([2]; deionized water),Dissolution of tablet ([2]; pH 1 (0.1N HCl)),Part of tablet dissolved at one hour ([2]; pH 6.8 buffer)
"CN1CCN(C(=O)O[C@H]2c3nccnc3C(=O)N2c2ccc(Cl)cn2)CC1.O=C(O)/C=C\C(=O)O [Maleate, (S)-Zopiclone Maleate]",4.4,9000,greater than 80%,greater than 50%,"dissolve quickly and at substantially the same rate, regardless of the pH",1.3,1.4,1.2,–,–,–,–
"CN1CCN(C(=O)O[C@H]2c3nccnc3C(=O)N2c2ccc(Cl)cn2)CC1 [Free base, [(9S)-8-(5-chloropyridin-2-yl)-7-oxo-2,5,8-triazabicyclo[4.3.0]nona-1,3,5-trien-9-yl]4-methyl piperazine-1-carboxylate]",7.6,–,–,–,decreases markedly as the pH rises,0.5,0.6,0.5,0.2^1 mgA/mL,less than one half,rapid and complete,less than one half
